Assay results as given in PMC8428568, “Discovery of re-purposed drugs that slow SARS-CoV-2 replication in human cells” (PLoS Pathogens, 2021).
Counter-ions that a name gives are not always drawn. Like-named read-outs stand apart in the source and are kept apart here.

Key:
[1] = test system: SARS-CoV-2-ΔOrf7a-NLuc virus; test: microbe, parasite or virus in culture; type: cell-based; settings: for activity at 10 µM: Severe acute respiratory syndrome coronavirus 2, Vero, 72 h, read-out: Mean relative luminescence (n=4); for IC50: Severe acute respiratory syndrome coronavirus 2
[2] = test system: SARS-CoV-2-ΔOrf7a-NLuc virus; test: microbe, parasite or virus in culture; type: cell-based; settings: for Mean relative luminescence (n=4): HUH7 screen; for IC50: read-out: HUH7 IC50
[3] = test system: SARS-CoV-2-ΔOrf7a-NLuc virus; test: Post-infection treatment: Vero cells infected 24 hrs with SARS-CoV-2-ΔOrf7a-NLuc, then compound for 48 hrs, bioluminescence; type: cell-based; settings: for Post-infection at IC50: change in replication relative to DMSO, cells infected 24 hrs, then treated 48 hrs
recombinant NLuc = type: biochemical; settings: for Relative Recombinant NLUC: recombinant NLuc activity relative to DMSO; for Reads Counts per second (read 1) / Reads Counts per second (read 4) / Reads Counts per second (read 3) / Reads Counts per second (read 2): recombinant NLuc; for Reads Counts per second (read 1): first read column; for Reads Counts per second (read 4): fourth read column; for Reads Counts per second (read 3): third read column
HUH7 cells = settings: HUH7 screen
[4] = 1 = untreated, 0 = total inhibition
[5] = Vero screen, relative luminescence
[6] = Severe acute respiratory syndrome coronavirus 2, Huh-7
[7] = Vero cells, 10 μM, 1 = DMSO-treated infected cells

Row | Structure (SMILES) | % activity in Vero 100PFU screen [1] | activity at 10 µM [1, 4] | IC50 ([1]; Vero cells) | Mean relative luminescence (n=4) [1, 5] | Mean relative luminescence (n=4) [2] | IC50 [2, 6] | Post-infection at IC50 [3] | Relative Recombinant NLUC (recombinant NLuc) | Reads Counts per second (read 1) (recombinant NLuc) | Reads Counts per second (read 4) (recombinant NLuc) | Reads Counts per second (read 3) (recombinant NLuc) | PrestoBlue relative viability (Vero cells; [7]) | PrestoBlue relative viability (Vero cells; Vero screen) | PrestoBlue relative viability (HUH7 cells) | Reads Counts per second (read 2) (recombinant NLuc) | also measured
1 | COC(=O)C1=C(C)NC(C)=C(C(=O)OCCN2CCN(C(c3ccccc3)c3ccccc3)CC2)C1c1cccc([N+](=O)[O-])c1 (stereo not shown) [Manidipine] | 12% | 10.9% | 7500 nM | 0.1086 | 0.1 | 2000 nM | -50% | 0.6615 | 249924 Counts per second | 251205 Counts per second | 250350 Counts per second | 1.036 | 1.036 | 0.5396 | – | –
2 | Cc1[nH]c2ccccc2c1CCNCc1ccc(/C=C/C(=O)NO)cc1 [Panobinostat] | 3.68% | 1.87% | < 200 nM | 0.01867 | 0.05897 | < 200 nM | -25% | 0.8963 | 330994 Counts per second | 341728 Counts per second | 343634 Counts per second | 0.6021 | 0.6021 | 0.753 | – | effect on virus replication [2]: completely blocked replication of SARS-CoV-2 at all doses tested; effect on replication in cells already infected ([3]; Vero cells infected 24 hrs then treated 48 hrs): a more modest effect on replication
3 | CCN1CCN(Cc2ccc(Nc3ncc(F)c(-c4cc(F)c5nc(C)n(C(C)C)c5c4)n3)nc2)CC1 [LY2835219] | 3.32% | 2.68% | 1000 nM | 0.02684 | 0.07242 | 200 nM | -40% | 0.9189 | 345999 Counts per second | 348685 Counts per second | 345910 Counts per second | 0.5512 | 0.5512 | 0.6043 | – | –
4 | O=C1C(O)=C([C@H]2CC[C@H](c3ccc(Cl)cc3)CC2)C(=O)c2ccccc21 [Atovaquone] | 4% | 0.959% | 3000 nM | 0.009591 | 0.05824 | 7500 nM | -25% | 0.5902 | 224278 Counts per second | 216287 Counts per second | 224646 Counts per second | 1.55 | 1.55 | 1.15 | 226697 Counts per second | –
5 | CCN(CC)Cc1cc(Nc2ccnc3cc(Cl)ccc23)ccc1O [Amodiaquine, Amodiaquine dihydrochloride dihydrate] | 12% | 10.1% | 5000 nM | 0.1007 | 0.01258 | 1000 nM | -25% | 0.9146 | 351271 Counts per second | 339282 Counts per second | 344113 Counts per second | 0.6404 | 0.6404 | 0.7783 | 347518 Counts per second | –
6 | COc1nc2ccc(Br)cc2cc1[C@@H](c1ccccc1)[C@@](O)(CCN(C)C)c1cccc2ccccc12 [Bedaquiline] | 3.54% | 1.02% | 10000 nM | – | – | 5000 nM | -30% | 0.9285 | 348601 Counts per second | 351646 Counts per second | 347079 Counts per second | 0.8784 | – | – | 355872 Counts per second | –
7 | COC(=O)C1=C(C)NC(C)=C(C(=O)OCCN2CCN(C(c3ccccc3)c3ccccc3)CC2)C1c1cccc([N+](=O)[O-])c1.Cl.Cl (stereo not shown) [Manidipine 2HCl] | 12% | – | – | 0.1096 | 0.04447 | – | -50% | 0.6382 | 242466 Counts per second | 239469 Counts per second | 242968 Counts per second | 0.813 | 0.813 | 0.5726 | – | Mean relative luminescence (n=4) [1, 4]: 0.1096; IC50 [2]: 2500 nM
8 | C=C1CC[C@H](O)C/C1=C/C=C1\CCC[C@]2(C)[C@@H]([C@H](C)CCCC(C)C)CC[C@@H]12 [Vitamin D3] | 12% | 9.68% | 10000 nM | 0.09678 | 0.02567 | 3000 nM | -30% | 0.9682 | 370629 Counts per second | 364312 Counts per second | 360711 Counts per second | 1.049 | 1.049 | 0.6418 | – | reduction of virus replication ([1]; Vero cells, 100PFU screen, 10 μM): ≥ 85%; suppression of SARS-CoV-2 replication [2]: ≥ 85%
9 | CCc1cnn2c(NCc3ccc[n+]([O-])c3)cc(N3CCCC[C@H]3CCO)nc12 [Dinaciclib (SCH727965), Dinaciclib] | 5% | 3.29% | – | 0.03292 | 0.06294 | – | – | 0.9134 | 345056 Counts per second | 346073 Counts per second | 342151 Counts per second | 0.664 | 0.664 | 0.5934 | – | –
10 | CCOC(=O)C1=C(C)NC(C)=C(C(=O)OCC)C1c1ccccc1/C=C/C(=O)OC(C)(C)C [Lacidipine] | 1.49% | 0.0439% | – | 0.0004392 | 0.02662 | – | – | 0.1601 | 61246 Counts per second | 59492 Counts per second | 60310 Counts per second | 0.86 | 0.86 | 0.9247 | – | –
